One block for each molecule: values may come before it.
Legend:
[1] = target: T1, Isovaleryl-CoA dehydrogenase (IVD) (Homo sapiens, UniProt P26440); assay: anaerobic UV/visible spectral titration; assay type: binding
T1 sequence (P26440 33-426): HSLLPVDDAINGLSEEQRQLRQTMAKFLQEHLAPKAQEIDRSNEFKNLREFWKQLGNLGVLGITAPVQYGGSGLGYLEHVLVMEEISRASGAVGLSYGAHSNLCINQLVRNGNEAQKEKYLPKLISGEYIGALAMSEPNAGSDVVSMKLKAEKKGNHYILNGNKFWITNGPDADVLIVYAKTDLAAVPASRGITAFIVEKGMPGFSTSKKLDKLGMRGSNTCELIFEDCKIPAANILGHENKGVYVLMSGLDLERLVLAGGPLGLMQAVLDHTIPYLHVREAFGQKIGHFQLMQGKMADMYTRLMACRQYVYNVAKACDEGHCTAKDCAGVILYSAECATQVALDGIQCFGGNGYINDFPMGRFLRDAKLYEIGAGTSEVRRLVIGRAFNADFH

[2] = target: T2, recombinant human isovaleryl-CoA dehydrogenase, CoA-persulfide-free (human, UniProt P26440 33-426); assay: competitive inhibition of enzyme activity
T2 sequence: T1 sequence (P26440 33-426)

- Kd [1]: 0.54 µM
Molecule: CC(C)CC(=O)SCCNC(=O)CCNC(=O)[C@H](O)C(C)(C)COP(=O)(O)OP(=O)(O)OC[C@H]1O[C@@H](n2cnc3c(N)ncnc32)[C@H](O)[C@@H]1OP(=O)(O)O [isovaleryl-CoA]

- Ki [2]: 1500 µM
B1: ETF docking peptide, ETF βArg191-βLys202 (peptide)
peptide: RYATLPNIMKAK

— publication PMC4280362 (Biochimie, 2014)
